In this assay the test system is Plasmopara viticola. Put plainly: Action against Plasmopara viticola on vines (preventive leaf spray, Colby evaluation). The format is in vivo. The following applies: for O Observed action: evaluation after 7 days. From the text: Fungicides have a synergistic effect whenever the fungicidal action of the active ingredient combination is greater than the sum of the actions of the active ingredients when applied individually.
The action E to be expected for a given active ingredient combination, for example of two fungicides, obeys the so-called COLBY formula and can be calculated as follows (COLBY, L. R. “Calculating synergistic and antagonistic responses of herbicide combinations”. Weeds 15, pages 20-22, 1967) (LIMPEL et al., […] “Weeds control by . . . certain combinations”. Proc. NEWCL, Vol. 16, pp. 48-53):
(mg a.i./liter=milligrams of active ingredient per liter or a multiple thereof) X=% action by fungicide I at p mg a.i./liter
Y=% action by fungicide II at q mg a.i./liter
E=the expected action of fungicides I+II at a rate of application of p+q mg a.i./liter (additive action), then according to Colby: [formula]
If the action (O) actually observed is greater than the expected action, then the action of the combination is superadditive, i.e. there is a synergistic effect.
1) Action Against Plasmopara viticola on Vines
Small vine plants of the variety “Gutedel” are each grown in a plant-pot (diameter=6 cm) under greenhouse conditions and are sprayed in the two-leaf stage with an active ingredient mixture prepared from an emulsifiable concentrate. The following concentrations of active ingredient are each applied to four plants: […]
metalaxyl racemate: 2 mg and 6 mg a.i./liter;
R-metalaxyl (100%): 0.06 mg and 0.6 mg a.i./liter; mancozeb: 2 mg and 6 mg a.i./liter.
These dilutions are prepared in demineralised water immediately before the leaves are sprayed. In order to eliminate the effect of the gas phase of the metalaxyl in the vicinity, all the plants are separated from one another laterally by means of transparent plastics films and are kept in the dark for one day at 20-22° C. and about 100% relative humidity.
The entire surface of the leaves of the plants is then uniformly sprayed to drip point with a freshly prepared sporangia suspension (120 000/ml) of a strain of Plasmopara viticola that is sensitive to metalaxyl. The plants are then kept at 20-22° C. and about 100% relative humidity for 7 days under artificial daylight of 16 hours' duration. Evaluation of the infestation is then carried out. The Tables show in each case the average of four parallel sprayings. The expected action in the case of mixtures is calculated according to COLBY.
Level of action of racemic metalaxyl and R-metalaxyl in admixture with residual component mancozeb

Setting [1] is: single active ingredient 2 mg a.i./l, vines Gutedel, infection 1 day after spraying, average of four.
[2] abbreviates: single active ingredient 6 mg a.i./l, vines.

Results on three compounds are retold here after US6514959B2 (priority 1994, dated 2003).

With `COCC(=O)N(c1c(C)cccc1C)[C@H](C)C(=O)OC` (single isomer, unassigned) [R-enantiomer of metalaxyl, R-metalaxyl], the “improvement of action when the R-enantiomer is used instead of racemic metalaxyl” value (in admixture with 2 mg or 6 mg of mancozeb, 0.06 mg R-metalaxyl corresponds to 2 mg racemic metalaxyl) is given as “about 30 fold”. Besides, the “O Observed action” value by setting is: (single active ingredient 0.06 mg a.i./l, vines) 12%; (single active ingredient 0.6 mg a.i./l, vines) 18%.
Take `COCC(=O)N(c1c(C)cccc1C)C(C)C(=O)OC` (stereo not shown) [Metalaxyl, metalaxyl]: the “O Observed action” value reads like this: under setting [1], 12%; under setting [2], 24%.
The like results for mancozeb were, in that order, 0% and 20%.
